Legend:
[1] = molecular target: T1, Organic cation/carnitine transporter 2 (Homo sapiens, UniProt O76082); experiment: TP_TRANSPORTER: inhibition of TEA uptake (TEA: 20 uM, MPP+: 5000 uM) in OCTN2-expressing HeLa cells; assay type: functional, cell-based; set-up: scale not given: the % may be the effect or the level left
T1 sequence (O76082 whole entry): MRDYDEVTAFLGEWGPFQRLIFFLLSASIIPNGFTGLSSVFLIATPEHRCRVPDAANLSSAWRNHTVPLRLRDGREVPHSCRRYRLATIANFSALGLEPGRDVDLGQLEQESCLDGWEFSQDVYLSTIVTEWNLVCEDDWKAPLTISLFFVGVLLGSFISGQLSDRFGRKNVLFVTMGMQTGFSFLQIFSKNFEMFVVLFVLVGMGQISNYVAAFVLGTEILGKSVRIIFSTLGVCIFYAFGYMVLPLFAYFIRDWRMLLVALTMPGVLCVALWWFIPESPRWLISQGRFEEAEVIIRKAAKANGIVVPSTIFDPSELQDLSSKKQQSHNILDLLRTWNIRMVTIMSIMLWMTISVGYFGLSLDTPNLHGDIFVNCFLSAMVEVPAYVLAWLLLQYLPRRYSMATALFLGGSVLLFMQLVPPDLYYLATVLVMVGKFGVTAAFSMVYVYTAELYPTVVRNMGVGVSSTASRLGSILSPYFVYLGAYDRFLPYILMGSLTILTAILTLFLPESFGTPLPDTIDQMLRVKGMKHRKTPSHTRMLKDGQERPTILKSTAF

[2] = molecular target: T2, OCTN2 (organic cation/carnitine transporter 2) (Homo sapiens, UniProt O76082); experiment: in vitro; settings: HeLa cells that express OCTN2, probe TEA, 20 uM
T2 sequence (O76082 whole entry): T1 sequence (O76082 whole entry)
Description: TP_TRANSPORTER: inhibition of TEA uptake (TEA: 20 uM, Cimetidine: 5000 uM) in OCTN2-expressing HeLa cells

[3] = molecular target: T1, Organic cation/carnitine transporter 2; experiment: TP_TRANSPORTER: inhibition of TEA uptake (TEA: 20 uM, Amphetamine: 5000 uM) in OCTN2-expressing HeLa cells; assay type: functional, cell-based
[4] = molecular target: T2, OCTN2 (organic cation/carnitine transporter 2); experiment: in vitro; settings: HeLa cells that express OCTN2, probe TEA, 20 uM; remark: listed apart in the source
Description: TP_TRANSPORTER: inhibition of TEA uptake (TEA: 20 uM, Choline: 5000 uM) in OCTN2-expressing HeLa cells

[5] = molecular target: T2, OCTN2 (organic cation/carnitine transporter 2); experiment: in vitro; settings: HeLa cells that express OCTN2, probe TEA, 20 uM; remark: listed apart in the source
Description: TP_TRANSPORTER: inhibition of TEA uptake (TEA: 20 uM, Nicotine: 5000 uM) in OCTN2-expressing HeLa cells

[6] = molecular target: T2, OCTN2 (organic cation/carnitine transporter 2); experiment: TP_TRANSPORTER: inhibition of TEA uptake (TEA: 20 uM Procainamide: 5000 uM) in OCTN2-expressing HeLa cells; assay type: functional, cell-based; set-up: scale not given: the % may be the effect or the level left; settings: HeLa cells that express OCTN2, probe TEA, read-out: Activity
[7] = molecular target: T2, OCTN2 (organic cation/carnitine transporter 2); experiment: TP_TRANSPORTER: inhibition of TEA uptake (TEA: 20 uM, Methamphetamine: 5000 uM) in OCTN2-expressing HeLa cells; assay type: functional, cell-based; set-up: scale not given: the % may be the effect or the level left; settings: HeLa cells that express OCTN2, probe TEA, read-out: Activity
[8] = molecular target: T1, Organic cation/carnitine transporter 2; experiment: TP_TRANSPORTER: inhibition of TEA uptake (TEA: 20 uM, Guanidine: 5000 uM) in OCTN2-expressing HeLa cells; assay type: functional, cell-based

C[n+]1ccc(-c2ccccc2)cc1
Activity [1]: 39%

CN/C(=N/CCSCc1nc[nH]c1C)NC#N [CIMETIDINE]
activity at 5000 µM [2]: 39%

CC(N)Cc1ccccc1 (stereo not drawn) [AMPHETAMINE]
Activity [3]: is not an inhibitor [-]

C[N+](C)(C)CCO [CHOLINE]
activity at 5000 µM [4]: 75%

CN1CCC[C@H]1c1cccnc1 [NICOTINE]
activity at 5000 µM [5]: 44%

CCN(CC)CCNC(=O)c1ccc(N)cc1 [PROCAINAMIDE]
activity at 5000 µM [6]: 39%

CN[C@@H](C)Cc1ccccc1 [METHAMPHETAMINE]
activity at 5000 µM [7]: 66%

N=C(N)N [GUANIDINE]
Activity [8]: is not an inhibitor [-]

From ChEMBL document CHEMBL2073822, “cDNA sequence, transport function, and genomic organization of human OCTN2, a new member of the organic cation transporter family” (Biochem Biophys Res Commun, 1998)
